Patent US6221865A, “Inhibitors of protein isoprenyl transferases” (priority 1998, dated 2001)
Counter-ions that a name gives are not always drawn. Like-named read-outs stand apart in the source and are kept apart here. Blank lines part the entries; values can stand above or below the compound they belong to.

Target: T1, protein farnesyltransferase (Rattus norvegicus, UniProt Q02293+Q04631)
T1 construct: The enzyme is purified according to Reiss, Y., et al., Cell, 62: 81-88 (1990), utilizing steps one through three; from tissue; host or cells: rat brain
Assay: Inhibition of farnesyltransferase (scintillation proximity assay, rat brain enzyme, biotin-K Ras B fragment substrate)
Type: biochemical
Details: for inhibition at 1 µM: read-out: % inhibition of farnesyltransferase at 1 × 10^-6 M; for inhibition at 1 µM / % inhibition of farnesyltransferase at 1 × 10^-6 M: 1 × 10^-6 M (Table 2); for % inhibition of farnesyltransferase at 1 × 10^-5 M: 1 × 10^-5 M (Table 1)
Description: The ability of the compounds of the invention to inhibit protein farnesyltransferase or protein geranylgeranyltransferase can be measured according to the method of Moores, et al., J. Biol. Chem. 266: 14603 (1991) or the method of Vogt, et al., J. Biol. Chem. 270:660-664 (1995). In addition, procedures for determination of the inhibition of farnesylation of the oncogene protein Ras are described by Goldstein, et al., J. Biol. Chem., 266:15575-15578 (1991) and by Singh in U.S. Pat. No. 5,245,061.
In addition, in vitro inhibition of protein farnesyltransferase may be measured by the following procedure. Rat brain protein farnesyltransferase activity is measured using an Amersham Life Science commercial scintillation proximity assay kit and substituting a biotin-K Ras B fragment (biotin-[…]Ble-Met-CO2 H), […] final concentration, for the biotin-lamin substrate provided by Amersham. The enzyme is purified according to Reiss, Y., et al., Cell, 62: 81-88 (1990), utilizing steps one through three.
The % inhibition of protein farnesyltransferase was determined for representative compounds of the invention.

[1] = read-out: % inhibition of farnesyltransferase at 1 × 10^-7 M, 1 × 10^-7 M (Table 3)

T1 sequence (Q02293 whole entry, one chain of several): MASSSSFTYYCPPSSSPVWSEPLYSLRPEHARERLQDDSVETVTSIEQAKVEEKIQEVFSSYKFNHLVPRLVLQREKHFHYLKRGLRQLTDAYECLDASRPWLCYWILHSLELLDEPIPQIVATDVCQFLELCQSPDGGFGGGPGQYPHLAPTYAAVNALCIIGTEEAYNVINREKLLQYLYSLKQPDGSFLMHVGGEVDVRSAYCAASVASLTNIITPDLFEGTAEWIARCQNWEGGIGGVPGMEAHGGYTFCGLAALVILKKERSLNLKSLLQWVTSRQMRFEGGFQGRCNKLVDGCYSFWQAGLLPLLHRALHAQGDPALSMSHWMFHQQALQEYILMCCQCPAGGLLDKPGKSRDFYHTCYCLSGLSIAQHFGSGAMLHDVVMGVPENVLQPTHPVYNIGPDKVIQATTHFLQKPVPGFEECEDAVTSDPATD

SMILES: CSCC[C@H](NC(=O)c1ccc(/C=C/CC2CCCCC2)cc1-c1ccccc1C)C(=O)O [Example 471, N-[4-(3-cyclohexylprop-1-enyl)-2-(2-methylphenyl)benzoyl]methionine lithium salt]
inhibition at 1 µM: 94%

SMILES: CSCC[C@H](NC(=O)c1ccc(CC(CCC2CCCCC2)S(=O)(=O)c2ccccc2)cc1-c1ccccc1C)C(=O)O (stereo partly shown) [Example 1302, N-[4-(4-Cyclohexyl-2-phenylsulfonylbut-1-yl)-2-(2-methylphenyl)benzoyl]methionine Lithium Salt]
inhibition at 0.01 µM (read-out: % inhibition at 0.01 μM (**), Table 6, ** = 0.01 μM (footnote), title prints 0.01 mM): 93%

SMILES: CSCC[C@H](NC(=O)c1ccc(COCc2ccc(C(C)C)cc2)cc1-c1ccccc1C)C(=O)[O-].[Li+] [Example 940]
% inhibition of farnesyltransferase at 1 × 10^-7 M (1 × 10^-7 M (Table 3)): 92%

SMILES: COC(=O)[C@H](CCSC)NC(=O)c1ccc(NC(=O)[C@@H]2CSCN2)cc1-c1ccccc1.Cl [Example 164]
% inhibition of farnesyltransferase at 1 × 10^-6 M: 92%

SMILES: CSCCC(NC(=O)c1ccc(NC(=O)c2cncnc2)cc1-c1ccccc1)C(=O)O (stereo not shown) [Example 219]
% inhibition of farnesyltransferase at 1 × 10^-6 M: 56%

SMILES: CSCC[C@H](NC(=O)c1ccc(COCc2cnco2)cc1-c1ccccc1C)C(=O)[O-].[Li+] [Example 891]
% inhibition of farnesyltransferase at 1 × 10^-7 M (1 × 10^-7 M (Table 3)): 94%

SMILES: CSCC[C@H](NC(=O)c1ccc(/C=C/CCc2ccccc2)cc1-c1ccccc1C)C(=O)O [Example 472, N-[4-(4-phenylbut-1-enyl)-2-(2-methylphenyl)benzoyl]methionine]
inhibition at 1 µM: 97%

SMILES: CSCC[C@H](NC(=O)c1ccc(COCc2cnc(-c3ccc(Cl)cc3)s2)cc1-c1ccccc1C)C(=O)[O-].[Li+] [Example 901]
% inhibition of farnesyltransferase at 1 × 10^-8 M (1 × 10^-8 M (Table 4)): 84%

SMILES: CSCC[C@H](NC(=O)c1ccc(CN2CCN(C)CC2)cc1-c1ccccc1)C(=O)O [Example 289, [4-(4-methylpiperazinylmethyl)-2-phenylbenzoyl]methionine]
inhibition at 1 µM: 23%

SMILES: CSCC[C@H](NC(=O)c1ccc(COCc2cnc(-c3cccc(F)c3)s2)cc1-c1ccccc1C)C(=O)[O-].[Li+] [Example 898]
% inhibition of farnesyltransferase at 1 × 10^-8 M (1 × 10^-8 M (Table 4)): 82%

SMILES: CSCC[C@H](NC(=O)c1ccc(CS(=O)(=O)Cc2ccccc2)cc1-c1ccccc1C)C(=O)O [Example 555]
% inhibition of farnesyltransferase at 1 × 10^-6 M: 85%

SMILES: CSCC[C@H](NC(=O)c1ccc(CSC2CCCCC2)cc1-c1ccccc1C)C(=O)[O-].[Li+] [Example 550]
% inhibition of farnesyltransferase at 1 × 10^-6 M: 96%

SMILES: CSCC[C@H](NC(=O)c1ccc(NC(=O)Cc2nccs2)cc1-c1ccccc1)C(=O)O [Example 163]
% inhibition of farnesyltransferase at 1 × 10^-6 M: 18%

SMILES: Cc1ccccc1-c1cc(CN(C2CC2)C2(CC3CCCCC3)CCC2)ccc1C(=O)N[C@@H](CCS(C)(=O)=O)C(=O)O [Example 334]
inhibition at 1 µM: 93%

SMILES: CSCC[C@H](NC(=O)c1ccc(CN(CC23CC4CC(CC(C4)C2)C3)c2ccccc2)cc1-c1ccccc1C)C(=O)O [Example 510]
% inhibition of farnesyltransferase at 1 × 10^-6 M: 84%

SMILES: CSCC[C@H](NC(=O)c1ccc(CN[C@H](/C=C\CC(C)C)CC2CCCCC2)cc1-c1ccccc1C)C(=O)O [Example 526]
% inhibition of farnesyltransferase at 1 × 10^-7 M (1 × 10^-7 M (Table 3)): 96%

SMILES: CSCC[C@H](NC(=O)c1ccc(OCCCC2CCCCC2)cc1-c1ccccc1C)C(=O)O [Example 564]
% inhibition of farnesyltransferase at 1 × 10^-6 M: 98%

SMILES: CSCC[C@H](NC(=O)c1ccc(COCc2ccc(-c3ccc(C(F)(F)F)cc3)o2)cc1-c1ccccc1C)C(=O)[O-].[Li+] [Example 445]
% inhibition of farnesyltransferase at 1 × 10^-7 M (1 × 10^-7 M (Table 3)): 94%

SMILES: CSCC[C@H](NC(=O)c1ccc(CN(CCC2CCCCC2)Cc2ccccc2)cc1-c1ccccc1C)C(=O)[O-].[Li+] [Example 605]
% inhibition of farnesyltransferase at 1 × 10^-8 M (1 × 10^-8 M (Table 4)): 68%

SMILES: CSCC[C@H](NC(=O)c1ccc(CNCCN2CCOCC2)cc1-c1ccccc1)C(=O)O [Example 365]
% inhibition of farnesyltransferase at 1 × 10^-5 M: 97%

SMILES: CSCC[C@H](NC(=O)c1ccc(S(=O)(=O)N(Cc2ccccc2)c2ccccc2)cc1-c1ccccc1C)C(=O)O [Example 768, N-[4-(N-Benzyl-N-phenylaminosulfonyl)-2-(2-methylphenyl)benzoyl]methionine lithium salt]
inhibition at 1 µM: 67%

SMILES: CSCC[C@H](NC(=O)c1ccc(COCc2ccccc2Cl)cc1-c1ccccc1C)C(=O)[O-].[Li+] [Example 930]
% inhibition of farnesyltransferase at 1 × 10^-8 M (1 × 10^-8 M (Table 4)): 66%

SMILES: CSCCC(NC(=O)c1ccc(NC(=O)Cc2cscn2)cc1-c1ccccc1)C(=O)O (stereo not shown) [Example 162]
% inhibition of farnesyltransferase at 1 × 10^-6 M: 12%

Now from value to compound:

% inhibition of farnesyltransferase at 1 × 10^-7 M (1 × 10^-7 M (Table 3)): 96%
SMILES: COc1ncc(COCc2ccc(C(=O)N[C@@H](CCSC)C(=O)O)c(-c3ccccc3C)c2)s1 [Example 896]

% inhibition of farnesyltransferase at 1 × 10^-6 M: 55%
SMILES: CSCC[C@H](NC(=O)c1ccc(CN[C@@H](/C=C\CC(C)C)CC2CCCCC2)cc1-c1ccccc1)C(=O)O [Example 665]

% inhibition of farnesyltransferase at 1 × 10^-7 M (1 × 10^-7 M (Table 3)): 79%
SMILES: CCSC[C@H](CC1CCCCC1)N(Cc1ccc(C(=O)N[C@@H](CCSC)C(=O)O)c(-c2ccccc2C)c1)C(C)=O [Example 947]

inhibition at 0.01 µM (read-out: % inhibition of farnesyltransferase at 1 × 10^-8 M, 1 × 10^-8 M (Table 4)): 93%
SMILES: CSCC[C@H](NC(=O)c1ccc(CN2CCC[C@H]2COCC2CCCCC2)cc1-c1ccccc1C)C(=O)O [Example 992, N-[4-(2-cyclohexylmethoxymethylpyrrolidin-1-ylmethyl)-2-(2-methylphenyl)benzoyl]methionine]

inhibition at 1 µM: 41%
SMILES: CSCC[C@H](NC(=O)c1ccc(S(=O)(=O)NC2CCN(Cc3ccccc3)CC2)cc1-c1ccccc1C)C(=O)O [Example 773, lithium salt]

inhibition at 0.1 µM [1]: 90%
SMILES: CSCC[C@H](NC(=O)c1ccc(CN2CCC[C@@H]2COCc2ccccc2)cc1-c1ccccc1C)C(=O)O [Example 993, N-[4-(2-benzyloxymethylpyrrolidin-1-ylmethyl)-2-(2-methylphenyl)benzoyl]methionine]

% inhibition of farnesyltransferase at 1 × 10^-6 M: 87%
SMILES: COC(=O)c1cscc1NCc1ccc(C(=O)N[C@@H](CCSC)C(=O)O)c(-c2ccccc2C)c1 [Example 724]

% inhibition of farnesyltransferase at 1 × 10^-6 M: 99%
SMILES: CSCC[C@H](NC(=O)c1ccc(CN[C@H](CO)CC2CCCCC2)cc1-c1ccccc1C)C(=O)O [Example 617]

% inhibition of farnesyltransferase at 1 × 10^-5 M: 53%
SMILES: CSCC[C@H](NC(=O)c1ccc(CNc2ccc3c(c2)Cc2ccccc2-3)cc1-c1ccccc1)C(=O)O [Example 706]

inhibition at 0.1 µM (read-out: % inhibition at 0.1 μM (*), Table 6, * = 0.1 μM (footnote), title prints 0.1 mM): 92%
SMILES: CSCC[C@H](NC(=O)c1ccc(CN2CCC[C@H]2CN2CCCCC2)cc1-c1ccccc1C)C(=O)O [Example 1125, N-[4-(2-piperidin-1-ylmethylpyrrolidin-1-ylmethyl)-2-(2-methylphenyl)benzoyl]methionine]

inhibition at 1 µM: 95%
SMILES: CSCC[C@H](NC(=O)c1ccc(CCc2cnc(Oc3ccccc3)cn2)cc1-c1ccccc1C)C(=O)O [Example 813, lithium salt]

% inhibition at 0.01 μM (**) (Table 6, ** = 0.01 μM (footnote), title prints 0.01 mM): 89%
SMILES: COCCN(CCC1CCCCC1)Cc1ccc(C(=O)N[C@@H](CCSC)C(=O)O)c(-c2ccccc2C)c1 [Example 1104]

% inhibition of farnesyltransferase at 1 × 10^-8 M (1 × 10^-8 M (Table 4)): 94%
SMILES: CSCC[C@H](NC(=O)c1ccc(CO[C@H](CSc2ccccc2)CC2CCCCC2)cc1-c1ccccc1C)C(=O)O [Example 884]

% inhibition of farnesyltransferase at 1 × 10^-6 M: 78%
SMILES: CSCC[C@H](NC(=O)c1cc(Cc2ccccc2)c(COCc2ccccc2)cc1-c1ccccc1C)C(=O)O [Example 923]

% inhibition of farnesyltransferase at 1 × 10^-8 M (1 × 10^-8 M (Table 4)): 85%
SMILES: CSCC[C@H](NC(=O)c1ccc(CN(Cc2ccccc2)c2cccc(Cl)c2)cc1-c1ccccc1C)C(=O)O [Example 847]

% inhibition of farnesyltransferase at 1 × 10^-7 M (1 × 10^-7 M (Table 3)): 88%
SMILES: CCSC[C@H](CC(C)C)N(C)Cc1ccc(C(=O)N[C@@H](CCSC)C(=O)O)c(-c2ccccc2C)c1 [Example 906]

inhibition at 1 µM: 88%
SMILES: CSCC[C@H](NC(=O)c1ccc(C[C@H]2CC[C@@H](c3ccccc3)CC2)cc1-c1ccccc1C)C(=O)O [Example 790, N-[4-syn-(4-phenylcyclohexylmethyl)-2-(2-methylphenyl)benzoyl]methionine lithium salt]

% inhibition of farnesyltransferase at 1 × 10^-7 M (1 × 10^-7 M (Table 3)): 72%
SMILES: CSCC[C@H](NC(=O)c1ccc(COc2ccc3ccccc3c2)cc1-c1ccccc1C)C(=O)O [Example 573]

% inhibition of farnesyltransferase at 1 × 10^-7 M (1 × 10^-7 M (Table 3)): 89%
SMILES: CCCCN(CCCC)C(=O)CN(C)Cc1ccc(C(=O)N[C@@H](CCSC)C(=O)O)c(-c2ccccc2C)c1 [Example 913]

% inhibition of farnesyltransferase at 1 × 10^-6 M: 87%
SMILES: CCc1nnc(NCc2ccc(C(=O)N[C@@H](CCSC)C(=O)O)c(-c3ccccc3C)c2)s1 [Example 723]

% inhibition of farnesyltransferase at 1 × 10^-5 M: 73%
SMILES: CSCC[C@H](NC(=O)c1ccc(CNc2cccc(OC(F)(F)F)c2)cc1-c1ccccc1)C(=O)O [Example 678]

inhibition at 0.1 µM [1]: 86%
SMILES: CSCC[C@H](NC(=O)c1ccc(CCc2ccc(Oc3cccc(Cl)c3)cc2)cc1-c1ccccc1C)C(=O)O [Example 859, N-[4-(2-(4-(3-chlorophenoxy)phenyl)ethyl)-2-(2-methylphenyl)benzoyl]methionine]

% inhibition of farnesyltransferase at 1 × 10^-7 M (1 × 10^-7 M (Table 3)): 93%
SMILES: CSCC[C@H](NC(=O)c1ccc(COCC2CCC(c3ccc(Cl)cc3)O2)cc1-c1ccccc1C)C(=O)O (stereo partly shown) [Example 822]
